Key:
Liver microsomes [1] = test: Metabolic stability in human liver microsomes at 1 uM; format: ADME, Microsome
Liver microsomes [2] = test: Metabolic stability in rat liver microsomes at 1 uM; format: ADME, Microsome
[3] = Dissociation constant, pKa of the compound; format: physicochemical
[4] = Chemical stability in 0.1 N HCl after 4 hrs; format: physicochemical; conditions: read-out: Activity
[5] = Clearance in rat at […], iv dosed in 50% PEG-400/water; format: ADME, organism-based; set-up: dose 1.5 mg/kg, route intravenous; conditions: in vivo
[6] = Volume of distribution at steady state in rat at […], iv dosed in 50% PEG-400/water; format: ADME, organism-based; set-up: dose 1.5 mg/kg, route intravenous; conditions: in vivo, read-out: Vdss
[7] = Half life in rat at […], iv dosed in 50% PEG-400/water; format: ADME, organism-based; set-up: dose 1.5 mg/kg, route intravenous; conditions: in vivo
[8] = AUC (0 to infinity) in rat at 2.0 mg/kg, po dosed in 0.5% methylcellulose, 0.1% triacetin; format: ADME, organism-based; set-up: time infinity, dose 2 mg/kg, route oral; conditions: in vivo
[9] = Tmax in rat at 2.0 mg/kg, po dosed in 0.5% methylcellulose, 0.1% triacetin; format: ADME, organism-based; set-up: dose 2 mg/kg, route oral; conditions: in vivo
[10] = Cmax in rat at 2.0 mg/kg, po dosed in 0.5% methylcellulose, 0.1% triacetin; format: ADME, organism-based; set-up: dose 2 mg/kg, route oral; conditions: in vivo
[11] = Bioavailability in rat at 2.0 mg/kg, po dosed in 0.5% methylcellulose, 0.1% triacetin; format: ADME, organism-based; conditions: in vivo
[12] = Bioavailability in rat at […], po dosed in 0.5% methylcellulose, 0.1% triacetin; format: ADME, organism-based; conditions: in vivo
[13] = AUC (0 to infinity) in rat at 2.0 mg/kg, po dosed in 2% D-alpha-tocopheryl polyethylene glycol 1000 succinate; format: ADME, organism-based; set-up: dose 2 mg/kg, route oral, time infinity; conditions: plasma
[14] = AUC (0 to infinity) in rat at […], po dosed in 0.5% methylcellulose, 0.1% triacetin; format: ADME, organism-based; set-up: time infinity, dose 2.1 mg/kg, route oral; conditions: in vivo
[15] = Tmax in rat at 2.0 mg/kg, po dosed in 2% D-alpha-tocopheryl polyethylene glycol 1000 succinate; format: ADME, organism-based; set-up: dose 2 mg/kg, route oral; conditions: in vivo
[16] = Tmax in rat at […], po dosed in 0.5% methylcellulose, 0.1% triacetin; format: ADME, organism-based; set-up: dose 2.1 mg/kg, route oral; conditions: in vivo
[17] = Cmax in rat at 2.0 mg/kg, po dosed in 2% D-alpha-tocopheryl polyethylene glycol 1000 succinate; format: ADME, organism-based; set-up: dose 2 mg/kg, route oral; conditions: in vivo
[18] = Cmax in rat at […], po dosed in 0.5% methylcellulose, 0.1% triacetin; format: ADME, organism-based; set-up: dose 2.1 mg/kg, route oral; conditions: in vivo
[19] = (§1) Bioavailability in rat at 2.0 mg/kg, po dosed in 2% D-alpha-tocopheryl polyethylene glycol 1000 succinate; format: ADME, organism-based; conditions: in vivo
[20] = Clearance in rat at 2.7 mg/kg, iv dosed in 50% PEG-400/water; format: ADME, organism-based; set-up: dose 2.7 mg/kg, route intravenous; conditions: in vivo
[21] = Volume of distribution at steady state in rat at 2.7 mg/kg, iv dosed in 50% PEG-400/water; format: ADME, organism-based; set-up: dose 2.7 mg/kg, route intravenous; conditions: in vivo, read-out: Vdss
[22] = Half life in rat at 2.7 mg/kg, iv dosed in 50% PEG-400/water; format: ADME, organism-based; set-up: dose 2.7 mg/kg, route intravenous; conditions: in vivo
Rattus norvegicus = test: as §1; format: ADME, organism-based; conditions: in vivo
[23] = Ratio of drug level in brain to plasma in rat at 3 mg/kg, po after 4 hrs; format: ADME, organism-based; set-up: dose 3 mg/kg, route oral
[24] = Clearance in rat at 1.0 mg/kg, iv dosed in 50% PEG-400/water; format: ADME, organism-based; set-up: dose 1 mg/kg, route intravenous; conditions: in vivo
[25] = Volume of distribution at steady state in rat at 1.0 mg/kg, iv dosed in 50% PEG-400/water; format: ADME, organism-based; set-up: dose 1 mg/kg, route intravenous; conditions: in vivo, read-out: Vdss
[26] = Half life in rat at 1.0 mg/kg, iv dosed in 50% PEG-400/water; format: ADME, organism-based; set-up: dose 1 mg/kg, route intravenous; conditions: in vivo

| Stability (Liver microsomes [1]) | Stability (Liver microsomes [2]) | pKa [3] | AUC(0-inf) [8] | Tmax [9] | Cmax [10] | other results | SMILES |
| --- | --- | --- | --- | --- | --- | --- | --- |
| Stable | Stable | – | – | – | – | – | CC(C)OCc1nc(Nc2ccc(C(F)(F)F)nc2)c2ccc(-c3ncccc3C(F)(F)F)cc2n1 |
| – | – | 7.86 | – | – | – | – | FC(F)(F)c1ccc(Nc2nc(CCCN3CCOCC3)nc3cc(-c4ncccc4C(F)(F)F)ccc23)cc1 |
| Stable | Stable | – | – | – | – | – | FC(F)(F)c1ccc(Nc2nc(CN3CCOCC3)nc3cc(-c4ncccc4C(F)(F)F)ccc23)nc1 |
| Stable | Stable | 3.26 | 7620 ng·h/mL | 5.7 h | 137 ng/mL | remaining at 4 h [4]: 57%; clearance [5]: 4.2 mL/min/kg; Vd [6]: 12 L/kg; half-life [7]: 38 h; bioavailability [11]: 89% | FC(F)(F)c1ccc(Nc2ncnc3cc(-c4ncccc4C(F)(F)F)ccc23)nc1 |
| Stable | Stable | 3.48 | – | – | – | bioavailability [12]: 61%; clearance [5]: 22 mL/min/kg; Vd [6]: 5.5 L/kg; half-life [7]: 4.2 h; AUC(0-inf) [13]: 1450 ng·h/mL; AUC(0-inf) [14]: 982 ng·h/mL; Tmax [15]: 1.7 h; Tmax [16]: 1.8 h; Cmax [17]: 211 ng/mL; Cmax [18]: 137 ng/mL; bioavailability [19]: 94% | FC(F)(F)c1ccc(Nc2ncnc3cc(-c4ncccc4C(F)(F)F)ccc23)cn1 |
| – | – | 4.54 | 121 ng·h/mL | 3 h | 13 ng/mL | clearance [20]: 23 mL/min/kg; Vd [21]: 13 L/kg; half-life [22]: 8 h; AUC(0-inf) [13]: 1430 ng·h/mL; Tmax [15]: 0.67 h; Cmax [17]: 101 ng/mL; bioavailability [11]: 8%; F (Rattus norvegicus): 99% | FC(F)(F)c1ccc(Nc2ncnc3cc(-c4ncccc4C(F)(F)F)ccc23)cc1 [NGD-8243] |
| – | – | – | 218 ng·h/mL | 0.9 h | 93 ng/mL | – | C[C@@H]1CN(Cc2nc(Nc3ccc(C(F)(F)F)nc3)c3ccc(-c4ncccc4C(F)(F)F)cc3n2)C[C@H](C)O1 |
| – | – | 7.68 | – | – | – | – | CN1CCN(Cc2nc(Nc3ccc(C(F)(F)F)cc3)c3ccc(-c4ncccc4C(F)(F)F)cc3n2)CC1 |
| Stable | Stable | – | – | – | – | – | CCOCc1nc(Nc2ccc(C(F)(F)F)nc2)c2ccc(-c3ncccc3C(F)(F)F)cc2n1 |
| – | – | 3.7 | 3250 ng·h/mL | 3.7 h | 215 ng/mL | Kp at 4 h [23]: 1.8; clearance [24]: 5.3 mL/min/kg; Vd [25]: 3.5 L/kg; half-life [26]: 6.9 h; bioavailability [11]: 50% | COCc1nc(Nc2ccc(C(F)(F)F)cc2)c2ccc(-c3ncccc3C(F)(F)F)cc2n1 |
| – | – | 7.51 | – | – | – | – | CC1CN(Cc2nc(Nc3ccc(C(F)(F)F)cc3)c3ccc(-c4ncccc4C(F)(F)F)cc3n2)CC(C)O1 (stereo not drawn) |
